Laboratory results from US20230242532A1, “TETRACYCLIC PYRIMIDINONE COMPOUND, PREPARATION METHOD THEREFOR, AND COMPOSITION AND USE THEREOF” (NEUSCO BIOTECH LIMITED, priority 2019, published 2023).
pIC50: −log10 of the molar value. Read-outs that look alike come from different tables or passages of the source.

Key:
[1] = target: T1, recombinant human Lp-PLA2 enzyme (Homo sapiens, UniProt Q13093); assay: Recombinant human Lp-PLA2 assay (rhLp-PLA2), PED6 assay; assay type: biochemical; conditions: for IC50: PED6 substrate, recombinant human Lp-PLA2 at 4 nM or 110 pM, 30-min pre-incubation, fluorescence ex 480/em 540, read-out: rhLp-PLA2 (pIC50) (converted)
T1 sequence (Q13093 22-441): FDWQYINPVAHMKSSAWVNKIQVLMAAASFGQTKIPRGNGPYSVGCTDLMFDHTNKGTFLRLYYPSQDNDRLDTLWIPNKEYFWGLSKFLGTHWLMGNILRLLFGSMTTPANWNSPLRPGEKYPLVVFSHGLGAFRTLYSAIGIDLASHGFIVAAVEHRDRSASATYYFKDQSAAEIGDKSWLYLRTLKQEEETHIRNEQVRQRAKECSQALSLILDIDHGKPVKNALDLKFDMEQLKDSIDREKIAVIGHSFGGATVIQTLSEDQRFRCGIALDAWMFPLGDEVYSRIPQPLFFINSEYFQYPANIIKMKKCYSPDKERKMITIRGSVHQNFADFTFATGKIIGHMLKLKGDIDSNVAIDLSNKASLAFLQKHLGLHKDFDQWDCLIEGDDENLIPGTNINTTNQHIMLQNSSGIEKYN
Experimental: (1) Recombinant Human Lp-PLA2 Assay (rhLp-PLA2), Also Referred to as PED6 Assay
PED6 was a fluorescently-labeled phospholipid that could be purchased dorectly from Invitogene or Molecular Probes. […] Once cleaved by the Lp-PLA2 enzyme, it would release the FL group, resulting in enhanced fluorescence.
Assay Method: The compound to be tested (as shown in Table 1) was mixed with a DMSO solution in a volume ratio of 1:3, and diluted to prepare a source plate of a 384-well microplate. Then 0.01 μl of the compound was transferred via an ECHO liquid dispenser from the source plate to a 384-well Greiner 784076 plate, and 5 μl of a buffer consisting of 50 mM HEPES, pH7.4, 150 mM NaCl, and 1 mM CHAPS (the buffer solution containing a recombinant human Lp-PLA2 enzyme at a concentration of 4 nM or 110 pM) was added to each well of the plate. The plate was centrifuged at 500 rpm for 10 seconds. After a 30-min pre-incubation, 5 μl of the above-mentioned buffer was added to a 384-well Greiner 784076 plate, the plate was centrifuged at 500 rpm for 10 seconds.

[2] = target: T2, Lp-PLA2 enzyme in human plasma (Homo sapiens, UniProt Q13093); assay: Assay of Lp-PLA2 in human plasma (Thio-PAF assay); assay type: biochemical; conditions: for IC50: mixed human plasma, 2-thio-PAF substrate with CPM, 30-min pre-incubation, fluorescence ex 380/em 485, read-out: Thio-PAF (pIC50) (converted)
T2 construct: from tissue; host or cells: mixed (pooled) human plasma
T2 sequence (Q13093 22-441): T1 sequence (Q13093 22-441)
Experimental: (2) Assay of Lp-PLA2 in Human Plasma (Also Referred to as Thio-PAF Assay)
The human plasma assay was conducted using the sulphatide analog of PAF (phosphatidylcholine). After hydrolysis, it would generate phospholipids containing free sulfhydryl groups, which would be subjected to Michael addition with CPM to generate fluorescence-enhancing maleimide. Continuous quantitative analysis of thiol could be conducted by detecting the fluorescence intensity. This assay could be used to detect the inhibitory activity of the Lp-PLA2 inhibitor on the Lp-PLA2 enzyme in human plasma.
Assay Method: The compound to be tested (as shown in Table 2) was mixed with a DMSO solution in a volume ratio of (1:3), and diluted to prepare a source plate of a 384-well microplate. Then 0.01 μl of the compound was transferred via an ECHO liquid dispenser from the source plate to a 384-well Greiner 784076 plate, and 8 μl of pre-aliquoted and frozen mixed human plasma was then added. The plate was centrifuged at 500 rpm for 10 seconds. After a 30-min pre-incubation, 2 μl of a substrate solution, and a buffer containing 2.5 mM 2-thio-PAF (a solution in ethanol), 32 μM CPM (a solution in DMSO) and 3.2 mM N-ethylmaleimide (NEM) (a buffer solution consisting of 50 mM HEPES, pH7.4, 150 mM NaCl, 1 mM CHAPS) was added by a BRAVO liquid handling station to a 384-well Greiner 784076 low-volume plate. Two minutes later, the reaction was quenched with 5 μl of 5% trifluoroacetic acid. After the plate was incubated at room temperature for 40 min in a dark place, the fluorescence intensity was read at ex 380/em 485 with an Envision microplate reader, and the XL fitting model in Excel was used to perform the curve analysis and QC analysis to calculate pIC50.

SMILES | IC50 [1] [nM] | IC50 [2] [nM] | pIC50 [1] | pIC50 [2]
O=c1nc(OCc2cccc(F)c2F)cc2n1CC13CCC(CC1)N23 [Compound 1] | – | – | 8.60 | 7.00
O=c1nc(OCc2ccc(F)cc2)cc2n1CC13CCC(CC1)N23 [Compound 2] | – | – | 9.10 | 7.60
O=c1nc(OCc2ccc(F)c(F)c2)cc2n1CC13CCC(CC1)N23 [Compound 3] | – | – | 9.30 | 7.80
O=c1nc(OCc2cc(F)c(Oc3ccnc(C(F)(F)F)c3)c(F)c2)cc2n1CC13CCC(CC1)N23 [Compound 4] | 0.0398 | 3.98 | – | –
O=c1nc(OCc2cc(F)c(Oc3ccc(C(F)(F)F)cc3)c(F)c2)cc2n1CC13CCC(CC1)N23 [Compound 5] | 0.0316 | 6.31 | – | –
O=c1nc(OCc2cc(F)c(Oc3ccc(Cl)c(C(F)(F)F)c3)c(F)c2)cc2n1CC13CCC(CC1)N23 [Compound 10] | 0.0631 | 7.94 | – | –
O=c1nc(OCc2cc(F)c(Oc3cccc(C(F)(F)F)c3)c(F)c2)cc2n1CC13CCC(CC1)N23 [Compound 11] | 0.0794 | 12.6 | – | –
O=c1nc(OCc2cc(F)c(Oc3cnc(C(F)(F)F)nc3)c(F)c2)cc2n1CC13CCC(CC1)N23 [Compound 13] | 0.251 | 20 | – | –
O=c1nc(OCc2cc(F)c(Oc3ccc(C(F)(F)F)c(Cl)c3)c(F)c2)cc2n1CC13CCC(CC1)N23 [Compound 14] | 0.0794 | 7.94 | – | –
O=c1nc(OCc2cc(F)c(Oc3cccc(OC(F)(F)F)c3)c(F)c2)cc2n1CC13CCC(CC1)N23 [Compound 16] | 0.1 | 12.6 | – | –
O=c1nc(OCc2cc(F)c(Oc3ccc(OC(F)(F)F)c(Cl)c3)c(F)c2)cc2n1CC13CCC(CC1)N23 [Compound 17] | 0.0794 | 10 | – | –
O=c1nc(OCc2cc(F)c(Oc3ccnc(C(F)(F)F)c3)c(F)c2)cc2n1CC13CCCC(CC1)N23 (stereo not drawn) [Compound 18] | 0.1 | 7.94 | – | –

Second part, led by results:

IC50 [1] [nM] | IC50 [2] [nM] | SMILES | pIC50 [1] | pIC50 [2]
0.0501 | 7.94 | O=c1nc(OCc2cc(F)c(Oc3ccc(C(F)(F)F)nc3)c(F)c2)cc2n1CC13CCC(CC1)N23 [Compound 6] | – | –
0.0398 | 3.16 | Cc1cc(Oc2c(F)cc(COc3cc4n(c(=O)n3)CC35CCC(CC3)N45)cc2F)ccn1 [Compound 7] | – | –
0.0316 | 7.94 | Cc1ccc(Oc2c(F)cc(COc3cc4n(c(=O)n3)CC35CCC(CC3)N45)cc2F)cn1 [Compound 8] | – | –
0.1 | 12.6 | Cc1ncc(Oc2c(F)cc(COc3cc4n(c(=O)n3)CC35CCC(CC3)N45)cc2F)cn1 [Compound 9] | – | –
0.0794 | 10 | Cc1cc(Oc2c(F)cc(COc3cc4n(c(=O)n3)CC35CCC(CC3)N45)cc2F)ccc1Cl [Compound 12] | – | –
0.316 | 15.8 | Cc1ncc(Oc2c(F)cc(COc3cc4n(c(=O)n3)CC35CCCC(CC3)N45)cc2F)cn1 (stereo not drawn) [Compound 19] | – | –
